The values that follow come from the supplement of paper PMC6045584.

Compound in one assay: C=CCn1c(=O)c2cnc(Nc3ccc(N4CCN(C)CC4)cc3)nc2n1-c1cccc(C(C)(C)O)n1 [MK-1775]
Put plainly: surviving fraction relative to DMSO-only wells; higher = less growth inhibition. Particulars: exposure time: 5 days. In outline: (§1)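 Surviving fraction is CellTiter-Glo luminescence divided by the median of wells given DMSO only. For this, log-phase tumour cell lines went into 384-well plates at 250–500 cells per well and, 24 hours later, into five days of continuous inhibitor exposure at 0.5, 1, 5, 10, 50, 100, 500 and 1000 nM. Lines were screened three times and retained only if replicate Pearson r >0.7 and median Z' >0.3.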

Compound in a further assay: CC/C(=C(\c1ccc(O)cc1)c1ccc(OCCN(C)C)cc1)c1ccccc1 [AFIMOXIFENE]
The description is as above. The conditions noted are these: exposure time: 5 days. In outline: as §1

± gives the standard deviation of the averaged measurements.

On to COLO320DM LARGE INTESTINE, for which the surviving fraction in the assay with MK-1775 (0.5 nM) turned out to be 1.09 ± 0.063; with MK-1775 (1 nM) it was 1.1 ± 0.12; with MK-1775 (5 nM), 1.08 ± 0.12; in the assay with MK-1775 (10 nM) it was 1.12 ± 0.033; with MK-1775 (50 nM) it was 0.834 ± 0.054; in the assay with MK-1775 (100 nM), 0.592 ± 0.16. Further, the surviving fraction with MK-1775 (500 nM) worked out at 0.139 ± 0.011; with MK-1775 (1000 nM) it was 0.131 ± 0.014; with AFIMOXIFENE (0.5 nM), 1.14 ± 0.071; in the assay with AFIMOXIFENE (1 nM), 1.05 ± 0.08; in the assay with AFIMOXIFENE (5 nM) it was 1.05 ± 0.011; with AFIMOXIFENE (10 nM) it was 1.11 ± 0.045. In addition, the surviving fraction with AFIMOXIFENE (50 nM) is 1.17 ± 0.079; in the assay with AFIMOXIFENE (100 nM), 1.18 ± 0.056; with AFIMOXIFENE (500 nM), 1.16 ± 0.05; with AFIMOXIFENE (1000 nM) it was 1.13 ± 0.018.

Consider VCAP PROSTATE, for which the surviving fraction with MK-1775 (0.5 nM) was found to be 1.14 ± 0.079; in the assay with MK-1775 (1 nM), 1.14 ± 0.19; in the assay with MK-1775 (5 nM), 1.09 ± 0.042; with MK-1775 (10 nM), 1.08 ± 0.08; in the assay with MK-1775 (50 nM), 1.04 ± 0.12; with MK-1775 (100 nM) it was 0.52 ± 0.11. The surviving fraction was found to be 0.0963 ± 0.019 in the assay with MK-1775 (500 nM); 0.121 ± 0.019 with MK-1775 (1000 nM); 0.993 ± 0.093 with AFIMOXIFENE (0.5 nM); 1.06 ± 0.1 with AFIMOXIFENE (1 nM); 1.07 ± 0.065 with AFIMOXIFENE (5 nM); 1.11 ± 0.098 with AFIMOXIFENE (10 nM). Besides, the surviving fraction was 1.12 ± 0.11 in the assay with AFIMOXIFENE (50 nM), 1.09 ± 0.019 with AFIMOXIFENE (100 nM), 1.07 ± 0.17 with AFIMOXIFENE (500 nM) and 0.941 ± 0.075 with AFIMOXIFENE (1000 nM).

Regarding YAMATO SYNOVIAL, the surviving fraction with MK-1775 (0.5 nM) amounted to 1.31 ± 0.14; in the assay with MK-1775 (1 nM) it was 1.29 ± 0.064; with MK-1775 (5 nM), 1.43 ± 0.074; with MK-1775 (10 nM), 1.2 ± 0.093; with MK-1775 (50 nM), 1.27 ± 0.12; in the assay with MK-1775 (100 nM), 0.972 ± 0.036. For the same test system, the surviving fraction came out at 0.463 ± 0.031 with MK-1775 (500 nM); 0.424 ± 0.018 with MK-1775 (1000 nM); 1.22 ± 0.14 with AFIMOXIFENE (0.5 nM); 1.27 ± 0.022 with AFIMOXIFENE (1 nM); 1.37 ± 0.14 with AFIMOXIFENE (5 nM); 1.4 ± 0.037 in the assay with AFIMOXIFENE (10 nM). Also, the surviving fraction with AFIMOXIFENE (50 nM) came to 1.23 ± 0.14; in the assay with AFIMOXIFENE (100 nM), 1.28 ± 0.096; in the assay with AFIMOXIFENE (500 nM), 1.23 ± 0.066; in the assay with AFIMOXIFENE (1000 nM), 1.31 ± 0.14.

Turning to HCC202 BREAST, the surviving fraction with MK-1775 (0.5 nM) was determined as 1.137 ± 0.0059; with MK-1775 (1 nM), 1.13 ± 0.2; with MK-1775 (5 nM) it was 1.01 ± 0.21; with MK-1775 (10 nM), 0.991 ± 0.061; with MK-1775 (50 nM), 0.908 ± 0.17; in the assay with MK-1775 (100 nM), 0.712 ± 0.22. The surviving fraction with MK-1775 (500 nM) came out at 0.347 ± 0.08; in the assay with MK-1775 (1000 nM), 0.361 ± 0.075; in the assay with AFIMOXIFENE (0.5 nM), 1.15 ± 0.4; with AFIMOXIFENE (1 nM) it was 1.2 ± 0.061; with AFIMOXIFENE (5 nM) it was 1.53 ± 0.67; with AFIMOXIFENE (10 nM), 1.19 ± 0.14. Further, the surviving fraction with AFIMOXIFENE (50 nM) is 1.03 ± 0.083; in the assay with AFIMOXIFENE (100 nM), 1.17 ± 0.17; with AFIMOXIFENE (500 nM), 0.881 ± 0.29; with AFIMOXIFENE (1000 nM), 1.13 ± 0.51.

With SCC003 HEADNECK, the surviving fraction in the assay with MK-1775 (0.5 nM) amounted to 1.12 ± 0.07; in the assay with MK-1775 (1 nM), 1.08 ± 0.11; with MK-1775 (5 nM) it was 1.1 ± 0.12; in the assay with MK-1775 (10 nM), 1.11 ± 0.06; in the assay with MK-1775 (50 nM), 0.927 ± 0.026; with MK-1775 (100 nM), 0.874 ± 0.05. In addition, the surviving fraction with MK-1775 (500 nM) stood at 0.421 ± 0.08; in the assay with MK-1775 (1000 nM) it was 0.247 ± 0.019; with AFIMOXIFENE (0.5 nM) it was 1.127 ± 0.0056; in the assay with AFIMOXIFENE (1 nM), 1.14 ± 0.015; with AFIMOXIFENE (5 nM), 1.1 ± 0.091; in the assay with AFIMOXIFENE (10 nM), 1.07 ± 0.057. Further, the surviving fraction came out at 1.13 ± 0.055 with AFIMOXIFENE (50 nM), 1.1 ± 0.091 with AFIMOXIFENE (100 nM), 1.151 ± 0.0068 with AFIMOXIFENE (500 nM) and 1.11 ± 0.042 with AFIMOXIFENE (1000 nM).
